What was measured:
[1] = Solubility of crosslinking agent HMTA in methyl benzoate by proton NMR with duroquinone internal standard; assay type: physicochemical; details: solvent methyl benzoate
Procedure: For compositional analysis, a Bruker 400 megahertz (MHz) NMR instrument was used. The solubility of crosslinking agent, HMTA, in methyl benzoate was measured by using duroquinone as the internal standard.
The high solubility of HMTA results directly from the plasticized phenol-formaldehyde prepolymer. […] J. P. Patel, et al., J. Polym. Sci. Part B: Polym. Phys., 2015, vol. 53, pp. 1519-1526. […] In this scheme methyl benzoate indirectly increases the interaction between the two reactants, the crosslinking agent HMTA and the phenol-formaldehyde prepolymer.

[2] = solvent furfural; cited from earlier work

C1N2CN3CN1CN(C2)C3 [HMTA, hexamethylenetetramine]
solubility of HMTA in methyl benzoate (in words) [1]: virtually insoluble
solubility of HMTA in methyl benzoate ([1]; proton NMR, duroquinone internal standard): no more than 5 milligrams of HMTA per milliliter of methyl benzoate
solubility of HMTA in furfural [2]: less than two
